Drawing on US6790968B1, “Substance FKI-0076 and process for producing the same” (The Kitasato Institute, priority 2002, dated 2004), this text covers MIC, inhibition ring and inhibitory ring for 1 compound.

Assay type in all cases: cell-based
Experiment [1] relates to Pseudomonas aeruginosa KB105 (IF03080). The experiment is described as follows: MIC, microbroth dilution method. As to conditions: 24 h. In general terms: In broth dilution the organism is exposed to a series of concentrations in liquid medium.
The subject of experiment [2] is Mycobacterium smegmatis KB42 (ATCC607). The experiment in a line: MIC, microbroth dilution method. To be noted: Mycolicibacterium smegmatis, ATCC607, 24 h.
Experiment [3] concerns Xanthomonas campestris pv. oryzae KB88. The experiment is described as follows: microbe, parasite or virus in culture. To be noted: 24 h.
Experiment [4] has as its system Micrococcus luteus KB40 (ATCC9431). The experiment is described as follows: MIC, microbroth dilution method. As to conditions: ATCC9431, 24 h.
The subject of experiment [5] is Candida albicans KF1. The experiment is described as follows: MIC, microbroth dilution method. As to conditions: KF1, 24 h.
The subject of experiment [6] is Pyricularia oryzae KB180. The experiment in a line: microbe, parasite or virus in culture. To be noted: KB180, 48 h.
Experiment [7] concerns Bacillus subtilis KB27 (ATCC6633). The experiment in a line: MIC, microbroth dilution method. As to conditions: ATCC6633, 24 h.
Experiment [8] concerns Saccharomyces cerevisiae KF26 (ATCC9763). The experiment is described as follows: MIC, microbroth dilution method. As to conditions: ATCC9763, 24 h.
Experiment [9] deals with Staphylococcus aureus KB210 (ATCC6538P). The experiment in a line: MIC, microbroth dilution method. To be noted: 24 h.
Experiment [10] deals with Aspergillus niger KB103 (ATCC6275). The experiment is described as follows: MIC, microbroth dilution method. To be noted: ATCC6275, 48 h.
The test system of experiment [11] is Escherichia coli KB176 (IF012734). The experiment in a line: MIC, microbroth dilution method. To be noted: 24 h.
In experiment [12] the test system is Mucor racemosus KF223 (IF04581). The experiment in a line: MIC, microbroth dilution method. As to conditions: 24 h.
The test system of experiment [13] is Acholeplasma laidlawii KB174. The experiment in a line: MIC, microbroth dilution method. As to conditions: KB174, 24 h.
Experiment [14] has as its system Saccharomyces cerevisiae KF26 (ATCC 9763). The experiment is described as follows: Enhanced activity of azole antifungal agent, paper disc method. As to conditions: 100 μg, 27° C., 24 hours. The protocol:
(§1) Enhanced activity of azole antifungal agent is determined by the following method. Candida albicans KF1 and Saccharomyces cerevisiae KF26 (ATCC 9763) were used. Candida albicans KF1 was cultured in Waksman broth (glucose 2.0%, peptone 0.5%, meat extract 0.5%, and NaCl 0.5%, pH 7.0) and Saccharomyces cerevisiae KF26 was cultured in potato broth (glucose 1.0%, peptone 0.5% and potato extract 100 ml). Both strains were cultured at 27° C. for 40 hours. Subsequently, each strain was inoculated in GY agar medium (glucose 1.0%, yeast extract 0.5% and agar 0.8%, pH 6.0). […]. Miconazole (Sigma Chemicals, Inc.) was used as the azole antifungal agent. […] Activities were assessed using paper disc ([…]: 8 mm, ADVANTEC Inc.). After being cultured at 27° C. for 24 hours, the diameter of the inhibitory zone was measured for each organism.

For experiment [15], the system named is Candida albicans KF1. The description is as above. As to conditions: 100 μg, 27° C., 24 hours. The protocol:
as §1

Where [16] appears, read: miconazole 0.1 μg/ml added to GY agar.
Setting [17] is: without addition of miconazole, GY agar.

Structures are written as SMILES. Converted amounts (≈) assume the structure as drawn. Bounds are passed on as bounds.

In the case of `COC(=O)c1cc(OC)cc(OC)c1C(=O)c1coc(CC(C)OC(C)=O)cc1=O` (centres unmarked) [FKI-0076 substance], the MIC in experiment [1] was more than 125 µg/mL; in experiment [2] it was more than 125 µg/mL; in experiment [3] it was more than 125 µg/mL; in experiment [4] it was more than 125 µg/mL; in experiment [5], more than 125 µg/mL; in [6] it was 125 µg/mL (≈ 299 µM). The MIC in [7], in experiment [8], in experiment [9], in experiment [10], in experiment [11] and in experiment [12] was more than 125 µg/mL throughout. The compound also displayed an MIC in experiment [13] of 125 µg/mL (≈ 299 µM). Further, the inhibition ring in experiment [14] (setting [16]) is recorded as 25 mm; in experiment [15] (setting [16]) it was 15 mm. For the same compound, the inhibitory ring result in experiment [14] (setting [17]) and in experiment [15] (setting [17]) was “did not show an inhibitory ring” in each case.
